# Test results: patent publication US20200345689A1, “METHODS AND CO[…] RRx-001 FOR RADIOPROTECTION” (EpicentRx, Inc., priority 2018, published 2020)
# Columns and labels:
# CD2F1 male mice = assay: 30-day survival following lethal total body irradiation; type: in vivo
# Protocol: In this Example, the effects of systemic administration of RRx-001 on survival in response to a lethal dose of radiation was assayed in mice. CD2F1 male mice 9.5-11 weeks old were administered a single dose of RRx-001 by intraperitoneal (IP) injection 24 hours prior to a lethal radiation dose. 24 mice received 10 mg/kg RRx-001 (formulated in 5% DMSO in sterile H2O) and 24 mice received the vehicle control (5% DMSO in sterile H2O only).
# The mice were subjected to total body irradiation (TBI) with 9.35 Gy (LD70/30) at 0.6 Gy/min using High-level Cobalt-60. Unanesthetized mice were placed in well-ventilated Plexiglas restrainers and irradiated bilaterally. Sham-irradiated mice were also placed in identical Plexiglas restrainers and kept in a room shielded from irradiation at the same time. In each experiment, the dose to the abdominal cores of the animals was delivered at a dose rate of approximately 0.6 Gy/min. Dosimetry was performed prior to the irradiation of the animals using the highly accurate alanine/electron spin resonance (ESR) dosimetry system (American Society for Testing and Materials, Standard E 1607) to measure dose rates (to water) in the cores of acrylic mouse phantoms, which were located in the compartments of the exposure rack. A calibration curve based on standard alanine calibration dosimeters provided by the National Institute of Standards and Technology (NIST, Gaithersburg, Md.) was used to measure the doses. The accuracy of the dose rate calibrations has been verified several times using the services of the National Physics Laboratory (UK National Standards Laboratory, London, UK) and the M.D. Anderson Cancer Center (Houston, Tex.). The corrections applied to the measured dose rates in the phantoms were for a small difference in the Co-60 energy between the mass energy-absorption coefficients for soft tissue and water, as well as source decay. The radiation field was uniform within ±1.2%.
# Mice were monitored at least twice a day for 30 days post-irradiation. During the critical period (days 10-20), mice were monitored at least three times a day with no more than 10 hours between observations. Mice displaying any signs of discomfort received food in their cage as a wet mash. Mice displaying overt dyspnea, weight loss, lethargy, or other markers of moribundity and appearing to be in distress were humanely euthanized in a separate room using carbon dioxide gas followed by cervical dislocation after breathing stopped as a confirmatory method of euthanasia. This experiment was repeated for a total of n=24 mice per group.
# Survival curves were estimated using the Kaplan-Meier method and were compared using a two-sided log-rank test at the 0.05 significance level. P-values were considered statistically significant if less than 0.05.
# heme oxygenase 1 (HO-1) = assay: Western blot of ARE protein expression in hMSC: HO-1; type: cell-based, human; conditions: 5 mM RRx-001 for 16 hours
# Protocol: (§1) Antioxidant response element (ARE) genes such as heme oxygenase 1 (HO-1), NAD(P)H Dehydrogenase [Quinone] 1 (NQO-1) and Superoxide Dismutase (SOD) are involved in the detoxification and elimination of reactive oxidants.
# (§2) Expression of ARE proteins was assayed in hMSC, macrophages, and monocytes following in vitro irradiation of the cells, which were pretreated with RRx-001 or vehicle. Protein expression was assayed by Western blotting and protein quantification.
# (§3) hMSC were treated for 16 hours with […] RRx-001 or the vehicle control (0.05% DMSO), irradiated at 10 Gy or sham-irradiated and the protein collected 8 or 24 hours post-sham or irradiation. Human monocytic leukemic THP-1 and U937 cells were differentiated into macrophages with 50 nM Phorbol 12-myristate 13-acetate (PMA) for 24 hours before treatment. Differentiated and non-differentiated cells were treated with […] RRx-001 or 0.05% DMSO (vehicle control) for 16 hours prior to radiation. The cells were irradiated at 5 Gy or sham-irradiated and collected 4-8 hours later for both analysis. For each experiment, duplicates of each sample were run.
# [1] = tested on: NAD(P)H Dehydrogenase [Quinone] 1 (NQO-1); assay: Western blot of ARE protein expression in hMSC: NQO-1; type: cell-based, human; conditions: 5 mM RRx-001 for 16 hours, all groups
# Protocol: as §1, §2, §3
# SOD1 and 2 = assay: Western blot of ARE protein expression in hMSC: SOD1 and 2; type: cell-based, human; conditions: 5 mM RRx-001 for 16 hours, 8 hours after 10 Gy irradiation
# Protocol: as §1, §2, §3
# superoxide dismutase = assay: Superoxide dismutase activity assay in hMSC; type: cell-based, human; conditions: 5 mM RRx-001 for 16 hours, 8 hours after 10 Gy irradiation
# Protocol: The activity of superoxide dismutase activity was also assayed in hMSC. hMSC were treated for 16 hours with […] RRx-001 or vehicle, irradiated at 10 Gy or sham-irradiated and whole cell homogenate collected according to the manufacture's protocol. The assay measures the activity of all three forms of SOD. The amount of SOD activity (U/mL) was normalized to protein levels.
# SOD-1 = assay: Western blot of SOD-1 in U937 macrophages; type: cell-based, human; conditions: 3 mM RRx-001 for 16 hours, sham and irradiated groups
# Protocol: as §2, §3
# [2] = Tolerability and body weight in the hamster mucositis study; type: in vivo, hamsters
# Protocol: Fifty-six (56) male Syrian Golden Hamsters were used in the study. Mucositis was induced by administering an acute radiation dose of 40 Gy directed to the left buccal cheek pouch on Day 0 at a rate of 2-2.5 Gy/min. Mucositis was evaluated clinically starting on Day 6 and continuing on alternate days until Day 28. Hamsters reaching a mucositis severity score of 4 or higher received buprenorphine (0.5 mg/kg) SC twice a day for 48 hours or until score dropped below 4.
# Dosing was scheduled as follows: for animals in Groups 1-4, animals were dosed with RRx-001 (1, 3, or 10 mg/kg) or vehicle (1:2 DMA:PEG400 vol:vol ratio) once a day (QD) on Days −4, −1, 1, 4, 7, 11, 14, 18, 21, and 25 via intraperitoneal (IP) administration; animals in Groups 5-7 were dosed QD with RRx-001 (1, 3, or 10 mg/kg) on Days −4, −1, 1, 8, 15, and 22.
# Dosing of all other groups continued as scheduled. Upon study conclusion, on Day 28, Animals were euthanized via CO2 inhalation and death was confirmed by monitoring heartbeat in accordance with USDA guidelines.
# [3] = 10 mg/kg 24 hours prior to lethal TBI, vs vehicle control
structure (smiles),measurement,setting,value
"O=C(CBr)N1CC([N+](=O)[O-])([N+](=O)[O-])C1 [RRx-001, 2-bromo-1-(3,3-dinitroazetidin-1-yl)ethan-1-one]",increase in mean survival time,CD2F1 male mice; [3],7 days
same,increase in survival,CD2F1 male mice; [3],33.4%
same,"survival times, means±standard errors","CD2F1 male mice; 10 mg/kg IP 24 hours prior to 9.35 Gy TBI, 30-day observation, N=24/group",27.2 ± 1.1 days
same,reduction in the 30-day death risk,"CD2F1 male mice; one dose of 10 mg/kg IP 24 hours prior to 9.35 Gy (LD70/30) TBI, vs vehicle control irradiated mice",~33.4%
same,increase in HO-1 expression,heme oxygenase 1 (HO-1); 24 hours post-sham or irradiation,2-3.5 fold
same,increase in HO-1 expression,"heme oxygenase 1 (HO-1); sham and 10 Gy irradiated groups, 8 hours post-sham or irradiation",22-26 fold
same,NQO-1 expression,[1],slightly reduced
same,SOD1 and 2 expression,SOD1 and 2,slight increase
same,Superoxide Dismutase Activity,superoxide dismutase,did not increase
same,SOD-1 expression,SOD-1,no change
same,body weight,[2]; Groups 2 and 5 (10 mg/kg),lower weights than all other groups
same,body weight after cessation of dosing,"[2]; Groups 2 and 5 (10 mg/kg), in line with other groups by study termination",weight slowly recovered
same,body weight,"[2]; animals other than Groups 2 and 5 (1 and 3 mg/kg), duration of the study",steadily gained weight
same,tolerability,"[2]; highest dose 10 mg/kg IP, Groups 2 and 5, dosing discontinued after Day 1",adverse side effects
